One data set has as its target T1, 14-3-3-Q (Homo sapiens, UniProt P27348).
T1 construct: purchased Abchem (so in the source)
T1 sequence (P27348 1-245): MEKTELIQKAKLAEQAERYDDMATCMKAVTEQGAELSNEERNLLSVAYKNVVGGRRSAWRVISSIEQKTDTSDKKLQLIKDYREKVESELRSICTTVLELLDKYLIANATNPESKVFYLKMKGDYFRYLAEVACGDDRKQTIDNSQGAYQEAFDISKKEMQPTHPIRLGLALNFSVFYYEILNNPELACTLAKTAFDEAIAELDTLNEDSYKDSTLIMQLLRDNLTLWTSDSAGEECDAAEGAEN
Nature of the data set: Fluorescent thermal shift assay (FTSA) with 14-3-3-Q. It is filed as binding. The protocol: (§1) His-tagged 14-3-3-E, B, and H plasmids were purchased from Addgene (plasmid ID# 31562, 39128, and 38814, respectively). E. coli (BL21) were transformed with extracted plasmids via heat shock and plated on selected media. Individual colonies were selected, grown, and sequenced to confirm gene presence. 1 L cultures were grown to an OD600 of 0.6 at 37 °C and 220 rpm. Protein expression was induced with 1 mM IPTG and expressed for 12 h at 100 rpm and room temperature (approximately 25 °C). Cells were spun down at 4000 rpm for 15 min at 4 °C and resuspended in lysis buffer containing 50 mM Tris (7.4), 150 mM NaCl, 0.08% DDM, 5 mM imidazole, and 5% glycerol (with an EDTA-free complete mini protease inhibitor cocktail). Cells were lysed via sonication, and the lysate was separated from cell debris by centrifugation at 15,000 rpm, 4 °C, for 45 min. The His-tagged protein was purified using QIAGEN Ni-NTA superflow columns, and the His-tag was removed with TEV protease. His-tag-removed proteins were further purified by size exclusion chromatography. His tag removal and size exclusion chromatography purification were done at the Northwestern University Protein Production core. […]
(§2) All of the FTSA experiments were conducted in HEPES buffer (60 mM HEPES, 150 mM NaCl, pH 7.4). […] The fluorescence was measured on a Bio-Rad CFX384 real-time PCR instrument.

The next data set concerns the target T2, 14-3-3-H (Homo sapiens, UniProt Q04917).
T2 construct: His-tag (TEV-cleavable) (cleaved yes); host or cells: E. coli (BL21)
T2 sequence (Q04917 1-246): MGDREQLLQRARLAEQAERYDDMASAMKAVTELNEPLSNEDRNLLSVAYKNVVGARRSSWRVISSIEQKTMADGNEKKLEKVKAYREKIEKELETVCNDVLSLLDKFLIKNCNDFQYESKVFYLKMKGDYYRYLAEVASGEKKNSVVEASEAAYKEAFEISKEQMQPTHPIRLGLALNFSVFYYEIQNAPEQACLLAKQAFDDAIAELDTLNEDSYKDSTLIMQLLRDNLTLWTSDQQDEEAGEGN
Briefly: Fluorescent thermal shift assay (FTSA) with 14-3-3-H. Type of data set: binding. The protocol: as §1, §2

The nature of data set [1]: PRAPP photolysis under 312 nm UV, followed by HPLC. Type of data set: physicochemical. Particulars: PBS under 312 nm UV irradiation; irradiation at 312 nm, 100 μM in PBS pH 7.4; read-out: photolysis half-life (T1/2). The protocol: The PRAPP (100 μM) was dissolved in PBS (50 mM, pH 7.4 [1% DMSO v/v]) and irradiated with UV light (λ = 312 nm, 120 V, 60 Hz, 0.2 A [Spectroline model EB-160C], distance ∼4 cm). UV light was removed from the reaction mixtures at varying time points (1, 2, 5, 10, and 20 min) and immediately analyzed by HPLC-UV–vis278 nm (injection volume of 5 μL). PRAPP % remaining was determined based on the area under the curve (AUC) of the UV–vis278 nm chromatogram. A first-order exponential decay curve was generated based on the AUC of the UV–vis chromatogram at 0, 1, 2, 5, 10, and 20 min and used to determine t1/2 of photolysis.

This is an account of results in PMC10823514, “Target Identification of a Class of Pyrazolone Protein Aggregation Inhibitor Therapeutics for Amyotrophic Lateral Sclerosis” (ACS Central Science, 2023).

On to `O=c1cc(COc2cc(Cl)cc(Cl)c2)[nH][nH]1` [P2], for which the “Tm shift (ΔTm)” value at 14-3-3-Q (SYPRO orange) is 1.1 °C. The Kd at 14-3-3-Q (fit of ΔTm versus concentration, n = 2, read-out: Kd^app) worked out at 4.32 µM. For the same molecule, on 14-3-3-H, the “binding (Tm shift)” value is “no binding”.
Take `C#CCN(Cc1cc(=O)[nH][nH]1)Cc1c(F)c(F)c(N=[N+]=[N-])c(F)c1F` [PRAPP, 5-(((4-Azido-2,3,5,6-tetrafluorobenzyl)(prop-2-yn-1-yl)amino)methyl)-1,2-dihydro-3H-pyrazol-3-one]: the half-life at 100 μM in data set [1] came out at 3.12 min.
